The values below come from article PMC7522982, “PKIS deep dive yields a chemical starting point for dark kinases and a cell active BRSK2 inhibitor” (Scientific Reports, 2020).

Assay [1] concerns the target T1, NLuc-BRSK2 in HEK293 cells (Homo sapiens, UniProt Q8IWQ3).
T1 construct: host or cells: HEK293
T1 sequence (Q8IWQ3 1-736): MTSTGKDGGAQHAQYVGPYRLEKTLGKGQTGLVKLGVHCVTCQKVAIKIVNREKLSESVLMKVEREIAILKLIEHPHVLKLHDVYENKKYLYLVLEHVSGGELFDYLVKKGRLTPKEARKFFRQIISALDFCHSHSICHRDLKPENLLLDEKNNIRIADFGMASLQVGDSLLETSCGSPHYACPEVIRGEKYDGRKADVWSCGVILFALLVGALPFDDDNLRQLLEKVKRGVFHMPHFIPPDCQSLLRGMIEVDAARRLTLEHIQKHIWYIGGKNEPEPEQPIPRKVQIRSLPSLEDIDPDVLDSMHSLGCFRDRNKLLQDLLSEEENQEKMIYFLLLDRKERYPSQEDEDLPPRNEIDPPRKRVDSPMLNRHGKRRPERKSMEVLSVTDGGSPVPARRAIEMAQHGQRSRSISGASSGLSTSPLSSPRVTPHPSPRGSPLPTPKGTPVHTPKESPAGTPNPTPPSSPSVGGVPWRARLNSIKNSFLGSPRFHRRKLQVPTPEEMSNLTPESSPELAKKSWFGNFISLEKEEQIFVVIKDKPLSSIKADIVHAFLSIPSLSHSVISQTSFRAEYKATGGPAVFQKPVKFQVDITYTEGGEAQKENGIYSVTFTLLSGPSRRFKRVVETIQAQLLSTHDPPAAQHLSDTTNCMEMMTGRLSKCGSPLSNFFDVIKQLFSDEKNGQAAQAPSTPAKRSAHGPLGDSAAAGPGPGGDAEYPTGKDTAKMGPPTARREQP
Kind of assay: BRSK2 NanoBRET cellular target engagement assay. Format: cell-based. The conditions noted are these: HEK293 cells transiently expressing NLuc-BRSK2, Tracer K5 1 μM, N = 3. The procedure: Our interest in illuminating BRSK2 biology motivated further investigation of the cellular target engagement of BRSK2 by GW296115 using our NanoBRET assay. BRSK2 kinase was fused to 19-kDa luciferase (NLuc) at its N-terminus (NLuc–BRSK2) which was transiently expressed in HEK293 cells, and then incubated with a cell-permeable fluorescent energy transfer probe (tracer)[23].
NanoBRET assays were executed as described previously. Constructs for BRSK2 NanoBRET measurements were provided in kind by Promega. The N-terminal Nanoluciferase (NL)/BRSK2 fusion (NL-BRSK2) was encoded in pFN32K expression vector, including flexible Gly-Ser-Ser-Gly linkers between NL and BRSK2 (Promega). For cellular BRSK2 NanoBRET target engagement experiments, a 10 μg/mL solution of DNA in Opti-MEM without serum (Gibco) was prepared with 9 μg/mL of Carrier DNA (Promega) and 1 μg/mL of NL-BRSK2 to achieve a total volume of 1.05 mL. To this solution was then added 31.5 μL of FuGENE HD (Promega) to form a lipid:DNA complex, mixed by inversion 8 times, and incubated at room temperature for 20 min. The resulting transfection complex (1.082 mL) was next gently mixed with HEK293 cells (21 mL) suspended at a density of 2 × 10^5 cells/mL in DMEM containing 10% FBS.
After 24 h, media was removed via aspiration and 85 μL of room temperature Opti-MEM without phenol red (Gibco) was added to each well. […] Next, 5 μL (20 × working stock of NanoBRET Tracer K5 [20 μM] in Tracer Dilution Buffer (Promega N291B)) was added to each well with the exception of the “no tracer” control wells. Test compounds were prepared as concentrated stock solutions in 100% DMSO (Sigma) at a concentration of 10 mM. […] A volume of 10 μL of tenfold test compound stock solutions (final assay concentration of […]) was added to each well. For “no compound” and “no tracer” control wells, 10 μL of Opti-MEM plus DMSO (9 μL Opti-MEM plus 1 μL DMSO) was added to each well to achieve a final concentration of 1% DMSO.
After 2 h, plates were returned to room temperature over the course of 15 min. […] Next, 50 μL of the 3 × substrate/extracellular NL inhibitor stock was added to each well.
Test compounds were evaluated at 8 concentrations in competition with NanoBRET Tracer K5 in HEK293 cells transiently expressing the NL-BRSK2 fusion protein. Raw milliBRET (mBRET) values were obtained by dividing the acceptor emission values (600 nm) by the donor emission values (450 nm), and then multiplying by 1000. Averaged control values were used to represent complete inhibition (no tracer control: transfected cells in Opti-MEM + DMSO; tracer control: transfected cells in Opti-MEM + DMSO + Tracer K5 only), and were plotted alongside the raw mBRET values. The data with n = 3 biological replicates was first normalized and then fit using Sigmoidal, 4PL binding curve in Prism Software (version 8, GraphPad, La Jolla, CA, USA).

In another assay the target is T2, BRSK2 (Homo sapiens, UniProt Q8IWQ3).
T2 sequence (Q8IWQ3 1-736): T1 sequence (Q8IWQ3 1-736)
Set-up: purchased Eurofins. The conditions noted are these: 0.5 μM; cited from earlier work.

Setting [2] is: read-out: BRSK2 NanoBRET data IC50.

The structures appear in SMILES notation. Values joined by “and” are separate entries in the source; they are usually repeats but may differ in a detail not shown here. Equal values may be shown once. Read-outs that look alike come from different tables or passages of the source.

What is called IC50 is the concentration at which inhibition is half-maximal. Take `O=C1NC(=O)c2c1c1c3ccccc3[nH]c1c1[nH]c3ccccc3c21` [Arcyriaflavin A]: the 50% inhibitory concentration (IC50) in assay [1] (setting [2]) was determined as 7680 ± 3500 nM.
For `O=C1NC(=O)C(c2c[nH]c3ccccc23)=C1c1c[nH]c2ccccc12` [Bisindolylmaleimide IV, bisindolylmaleimide IV], the “biochemical inhibition of BRSK2” value on BRSK2 is “weak biochemical inhibition”.
As for `O=C1NC(=O)c2c1c1c3ccccc3[nH]c1c1[nH]c3cc(Br)ccc3c21` [CDK4 inhibitor], in assay [1] (setting [2]), the IC50 was found to be 1330 ± 230 nM.
On the same count and under the same terms, the same measure for `Cn1c2ccccc2c2c3c(c4c5ccccc5n(CCC#N)c4c21)CNC3=O` [Gö 6976]: 914 ± 640 nM.
For the compound `COC(=O)C1(O)CC2OC1(C)n1c3ccccc3c3c4c(c5c6ccccc6n2c5c31)C(=O)NC4` (stereo not shown) [K-252a], the IC50 in assay [1] (BRSK2 NanoBRET data IC50 (nM)) was 20.2 nM and < 100 nM.
Compound `O=C1NCc2c1c1c3ccccc3[nH]c1c1[nH]c3ccccc3c21` [K-252c] registered a half-inhibitory concentration (IC50) in assay [1] (BRSK2 NanoBRET data IC50 (nM)) of 308 ± 250 nM.
Turning to `O=C1NC(=O)c2c1c1c3ccccc3n3c1c1c2c2ccccc2n1C1CCC3O1` [SB 218078], the IC50 in assay [1] (setting [2]) is 883 ± 200 nM.
